Patent US9233946B2, “Sulfonamide compounds” (KANCERA AB, priority 2010, dated 2016)

Tested on: PANC-1 cells
Assay: Quantification of F-2,6-P2 in PANC-1 cells
Assay type: cell-based
Conditions: Homo sapiens, PANC-1; read-out: IC50 based on quantification of F-2,6-P2
Method in brief: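 Endogenous PFKFB3/PFKFB4 activity in PANC-1 cells, 18 h serum/glucose starvation in glucose-free DMEM/F12 with 0.25% FBS, then 1 h compound preincubation (50 and 10 μM, or dose response from 50 μM; 0.5% DMSO) at 37 °C. Glucose stimulation for 2 h, NaOH lysis, F-2,6-P2 quantified by Van Schaftingen coupled enzymatic assay against in-house standard.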

`Cc1c(S(=O)(=O)Nc2cccc(C(=O)O)c2)sc2ccc(C(C)C)cc12` [Example 5, 3-{[(5-Isopropyl-3-methyl-1-benzothien-2-yl)sulfonyl]amino}benzoic acid] showed an IC50 of 2.3 µM.

For `Cc1c(S(=O)(=O)Nc2cccc(C(=O)O)c2)sc2ccc(Cl)cc12` [Example 38, 3-{[(5-Chloro-3-methyl-1-benzothien-2-yl)sulfonyl]amino}benzoic acid], the IC50 was 10.1 µM.
